The values that follow come from patent US20230127839A1, “COMPOUNDS AND COMPOSITIONS FOR TREATING CONDITIONS ASSOCIATED WITH STING ACTIVITY” (IFM Due, Inc., priority 2019, published 2023).

For this assay, the target named is T1, hSTING (Homo sapiens, UniProt Q86WV6, G230A/H232R/R293Q/R71H).
T1 construct: host or cells: THP1-Dual KO-IFNAR2 cells
The experiment in a line: STING reporter assay (luciferase) in THP1-Dual KO-IFNAR2 cells stimulated with 2'3'cGAMP. As to conditions: 2'3'cGAMP 15 μM, 24 h, luciferase reporter activity. It counts as cell-based. The procedure: STING pathway activation by the compounds described herein is measured using THP1-Dual™ cells (KO-IFNAR2).
THP1-Dual™ KO-IFNAR2 Cells (obtained from invivogen) are maintained in RPMI, 10% FCS, 5 ml P/S, 2 mM L-glut, 10 mM Hepes, and 1 mM sodium pyruvate.
Compounds are spotted in empty 384 well tissue culture plates (Greiner 781182) by Echo for a final concentration of 0.0017-100 μM. Cells are plated into the TC plates at 40 μL per well, 2×10E6 cells/mL. For activation with STING ligand, 2′3′cGAMP (MW 718.38, obtained from Invivogen), is prepared in Optimem media.
The following solutions are prepared for each 1×384 plate: • Solution A: 2 mL Optimem with one of the following stimuli: • 60 uL of 10 mM 2′3′cGAMP->150 μM stock • Solution B: 2 mL Optimem with 60 μL Lipofectamine 2000->Incubate 5 min at RT
2 mL of solution A and 2 ml Solution B is mixed and incubated for 20 min at room temperature (RT). 20 uL of transfection solution (A+B) is added on top of the plated cells, with a final 2′3′cGAMP concentration of 15 μM. The plates are then centrifuged immediately at 340 g for 1 minute, after which they are incubated at 37° C., 5% CO2, >98% humidity for 24 h. Luciferase reporter activity is then measured. EC50 values are calculated by using standard methods known in the art.
Luciferase reporter assay: 10 μL of supernatant from the assay is transferred to white 384-plate with flat bottom and squared wells. One pouch of QUANTI-Luc™ Plus us dissolved in 25 mL of water. 100 μL of QLC Stabilizer per 25 mL of QUANTI-Luc™ Plus solution is added. 50 μL of QUANTI-Luc™ Plus/QLC solution per well is then added. Luminescence is measured on a Platereader (e.g., Spectramax I3X (Molecular Devices GF3637001)).
Luciferase reporter activity is then measured. EC50 values are calculated by using standard methods known in the art.
In general terms: Reporter assays use an easily measured gene product as a stand-in for the process of interest.

T1 sequence (Q86WV6 whole entry R71H/G230A/H232R/R293Q): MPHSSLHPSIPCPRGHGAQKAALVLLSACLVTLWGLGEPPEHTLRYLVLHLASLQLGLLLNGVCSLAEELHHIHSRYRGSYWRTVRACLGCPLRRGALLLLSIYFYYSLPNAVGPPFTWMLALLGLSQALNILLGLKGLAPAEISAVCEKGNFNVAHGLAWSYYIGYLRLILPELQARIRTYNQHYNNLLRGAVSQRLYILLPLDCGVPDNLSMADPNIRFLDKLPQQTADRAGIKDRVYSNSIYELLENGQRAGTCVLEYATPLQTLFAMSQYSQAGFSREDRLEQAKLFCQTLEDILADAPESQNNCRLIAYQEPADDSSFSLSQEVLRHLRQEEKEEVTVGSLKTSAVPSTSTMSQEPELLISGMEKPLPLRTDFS

On to `N#Cc1cc(NC(=O)Nc2c[nH]c3ccc(Cl)cc23)cnc1C1CC(F)(F)C1` [Compound 257, 1-(5-chloro-1H-indol-3-yl)-3-(5-cyano-6-(3,3-difluorocyclobutyl)pyridin-3-yl)urea], for which the EC50 (in general, the concentration that produces a half-maximal response) was in the range of 40 to 200 nM.

In turn, `O=C(Nc1cnc(N2CCC(F)(F)CC2)c(Cl)c1)Nc1c[nH]c2ccc(Cl)cc12` [Compound 196, 1-(5-chloro-1H-indol-3-yl)-3-(5-chloro-6-(4,4-difluoropiperidin-1-yl)pyridin-3-yl)urea] gave an EC50 of 40 to 200 nM. Consider `C[C@H]1CN(c2ncc(NC(=O)Nc3c[nH]c4ccc(Cl)cc34)cc2Cl)C[C@H](C)O1` [Compound 286, 1-(5-chloro-1H-indol-3-yl)-3-(5-chloro-6-((2S,6S)-2,6-dimethylmorpholino)pyridin-3-yl)urea], for which the EC50 is 40 to 200 nM. Compound `O=C(Nc1cnc(N2CCN(CC(F)(F)F)CC2)c(Cl)c1)Nc1c[nH]c2cc(F)c(F)cc12` [Compound 269, 1-(5-chloro-6-(4-(2,2,2-trifluoroethyl)piperazin-1-yl)pyridin-3-yl)-3-(5,6-difluoro-1H-indol-3-yl)urea] gave an EC50 of 40 to 200 nM. To `O=C(Nc1cnn(C2CC(F)(F)C2)c1)Nc1c[nH]c2ccc(Cl)cc12` [Compound 215, 1-(5-chloro-1H-indol-3-yl)-3-(1-(3,3-difluorocyclobutyl)-1H-pyrazol-4-yl)urea] belongs 200 to 1000 nM.

Consider `Cc1cc(NC(=O)Nc2c[nH]c3ccc(Cl)cc23)cnc1C1CCC(F)(F)CC1` [Compound 156, 1-(5-chloro-1H-indol-3-yl)-3-(6-(4,4-difluorocyclohexyl)-5-methylpyridin-3-yl)urea], for which the EC50 was 40 to 200 nM. To `C[C@@H]1CN(c2ncc(NC(=O)Nc3c[nH]c4ccc(Cl)cc34)cc2Cl)C[C@H](C)N1` [Compound 288, 1-(5-chloro-1H-indol-3-yl)-3-(5-chloro-6-(cis-3,5-dimethylpiperazin-1-yl)pyridin-3-yl)urea] belongs 5000 to 100000 nM; to `O=C(Nc1ccc(C2CC(F)(F)C2)c(F)c1)Nc1c[nH]c2ccccc12` [Compound 282, 1-(4-(3,3-difluorocyclobutyl)-3-fluorophenyl)-3-(1H-indol-3-yl)urea], 200 to 1000 nM; to `O=C(Nc1cnc(N2CC3CCC(C2)O3)c(Cl)c1)Nc1c[nH]c2ccc(Cl)cc12` [Compound 285, 1-(6-(8-oxa-3-azabicyclo[3.2.1]octan-3-yl)-5-chloropyridin-3-yl)-3-(5-chloro-1H-indol-3-yl)urea], 40 to 200 nM. Next, `C[C@H]1CN(c2ncc(NC(=O)Nc3c[nH]c4cc(F)c(F)cc34)cc2Cl)CCO1` [Compound 188, (S)-1-(5-chloro-6-(2-methylmorpholino)pyridin-3-yl)-3-(5,6-difluoro-1H-indol-3-yl)urea]: 200 to 1000 nM; `O=C(Nc1ccc(C2CCC2)cc1)Nc1c[nH]c2ccc(Cl)cc12` [Compound 300, 1-(5-chloro-1H-indol-3-yl)-3-(4-cyclobutylphenyl)urea]: 40 to 200 nM; `Cc1cc(NC(=O)Nc2c[nH]c3ccc(F)cc23)cnc1N1CCC(F)(F)CC1` [Compound 195, 1-(6-(4,4-difluoropiperidin-1-yl)-5-methylpyridin-3-yl)-3-(5-fluoro-1H-indol-3-yl)urea]: 40 to 200 nM. The compound `Cc1cc(NC(=O)Nc2c[nH]c3ccccc23)cnc1N1CCC2(CC1)CC2` [Compound 198, 1-(1H-indol-3-yl)-3-(5-methyl-6-(6-azaspiro[2.5]octan-6-yl)pyridin-3-yl)urea] showed an EC50 of 40 to 200 nM. Next, `O=C(Nc1cnc(N2CCC(F)(F)CC2)c(Cl)c1)Nc1c[nH]c2ccc(Br)cc12` [Compound 208, 1-(5-bromo-1H-indol-3-yl)-3-(5-chloro-6-(4,4-difluoropiperidin-1-yl)pyridin-3-yl)urea]: 1000 to 5000 nM; `COC1CCN(c2ncc(NC(=O)Nc3c[nH]c4ccccc34)cc2C)CC1` [Compound 202, 1-(1H-indol-3-yl)-3-(6-(4-methoxypiperidin-1-yl)-5-methylpyridin-3-yl)urea]: 1000 to 5000 nM; `COC(=O)c1cc(NC(=O)Nc2c[nH]c3ccccc23)cnc1C1CCC(F)(F)CC1` [Compound 265, methyl 5-(3-(1H-indol-3-yl)ureido)-2-(4,4-difluorocyclohexyl)nicotinate]: 40 to 200 nM. Compound `C[C@H]1CN(c2ncc(NC(=O)Nc3c[nH]c4ccc(Cl)cc34)cc2Cl)C[C@H](C)N1` [Compound 289, 1-(5-chloro-1H-indol-3-yl)-3-(5-chloro-6-((3S,5S)-3,5-dimethylpiperazin-1-yl)pyridin-3-yl)urea] showed an EC50 of 5000 to 100000 nM. To `CO[C@@H]1CCCN(c2ncc(NC(=O)Nc3c[nH]c4cc(F)c(F)cc34)cc2Cl)C1` [Compound 149, (R)-1-(5-chloro-6-(3-methoxypiperidin-1-yl)pyridin-3-yl)-3-(5,6-difluoro-1H-indol-3-yl)urea] belongs 200 to 1000 nM; to `O=C(Nc1ccc(C2CC(F)(F)C2)c(Cl)c1)Nc1c[nH]c2cc(F)c(F)cc12` [Compound 225, 1-(3-chloro-4-(3,3-difluorocyclobutyl)phenyl)-3-(5,6-difluoro-1H-indol-3-yl)urea], 200 to 1000 nM; to `O=C(Nc1cnc(N2CC3(CCOC3)C2)c(Cl)c1)Nc1c[nH]c2cc(F)c(F)cc12` [Compound 186, 1-(5-chloro-6-(6-oxa-2-azaspiro[3.4]octan-2-yl)pyridin-3-yl)-3-(5,6-difluoro-1H-indol-3-yl)urea], 200 to 1000 nM. Compound `O=C(Nc1cnc(C2CCC(F)(F)CC2)c(F)c1)Nc1c[nH]c2ccc(Cl)cc12` [Compound 295, 1-(5-chloro-1H-indol-3-yl)-3-(6-(4,4-difluorocyclohexyl)-5-fluoropyridin-3-yl)urea] had an EC50 of 40 to 200 nM.

Consider `CCc1cc(NC(=O)Nc2c[nH]c3ccc(F)cc23)cnc1N1CCC(F)(F)CC1` [Compound 132, 1-(6-(4,4-difluoropiperidin-1-yl)-5-ethylpyridin-3-yl)-3-(5-fluoro-1H-indol-3-yl)urea], for which the EC50 was 40 to 200 nM. Next, `Cc1cc(NC(=O)Nc2c[nH]c3cc(F)c(F)cc23)cnc1C1CCN(CC(F)(F)F)CC1` [Compound 166, 1-(5,6-difluoro-1H-indol-3-yl)-3-(5-methyl-6-(1-(2,2,2-trifluoroethyl)piperidin-4-yl)pyridin-3-yl)urea]: 200 to 1000 nM; `CC1(C)CN(c2ncc(NC(=O)Nc3c[nH]c4cc(F)c(F)cc34)cc2F)CCO1` [Compound 290, 1-(5,6-difluoro-1H-indol-3-yl)-3-(6-(2,2-dimethylmorpholino)-5-fluoropyridin-3-yl)urea]: 40 to 200 nM. As for `COCCN1CCN(c2ncc(NC(=O)Nc3c[nH]c4ccc(Cl)cc34)cc2Cl)CC1` [Compound 135, 1-(5-chloro-1H-indol-3-yl)-3-(5-chloro-6-(4-(2-methoxyethyl)piperazin-1-yl)pyridin-3-yl)urea], the EC50 lay in the range of 200 to 1000 nM. On to `C[C@@H]1CN(c2ncc(NC(=O)Nc3c[nH]c4ccc(Cl)cc34)cc2Cl)C[C@H](C)O1` [Compound 293, 1-(5-chloro-1H-indol-3-yl)-3-(5-chloro-6-((2S,6R)-2,6-dimethylmorpholino)pyridin-3-yl)urea], for which the EC50 was 40 to 200 nM. With `O=C(Nc1ccnc(C2CCC(F)(F)CC2)c1)Nc1c[nH]c2ccc(Cl)cc12` [Compound 255, 1-(5-chloro-1H-indol-3-yl)-3-(2-(4,4-difluorocyclohexyl)pyridin-4-yl)urea], the EC50 was 200 to 1000 nM. With `O=C(Nc1cnc(C2CC(F)(F)C2)c(Cl)c1)Nc1c[nH]c2ccc(F)cc12` [Compound 277, 1-(5-chloro-6-(3,3-difluorocyclobutyl)pyridin-3-yl)-3-(5-fluoro-1H-indol-3-yl)urea], the EC50 was 40 to 200 nM. As for `O=C(Nc1cnn(C2CCC3(CC2)CC3)c1)Nc1c[nH]c2ccc(Cl)cc12` [Compound 214, 1-(5-chloro-1H-indol-3-yl)-3-(1-(spiro[2.5]octan-6-yl)-1H-pyrazol-4-yl)urea], the EC50 lay within 200 to 1000 nM. To `O=C(Nc1cnc(C2CCC(F)(F)CC2)c(CO)c1)Nc1c[nH]c2ccc(Cl)cc12` [Compound 136, 1-(5-chloro-1H-indol-3-yl)-3-(6-(4,4-difluorocyclohexyl)-5-(hydroxymethyl)pyridin-3-yl)urea] belongs 200 to 1000 nM; to `O=C(Nc1cnc(N2CCC3(CCCCO3)CC2)c(F)c1)Nc1c[nH]c2cc(F)ccc12` [Compound 145, 1-(6-fluoro-1H-indol-3-yl)-3-(5-fluoro-6-(1-oxa-9-azaspiro[5.5]undecan-9-yl)pyridin-3-yl)urea], 200 to 1000 nM.

In turn, `O=C(Nc1cnc(C2CCC(F)(F)CC2)c(Cl)c1)Nc1c[nH]c2ccccc12` [Compound 248, 1-(5-chloro-6-(4,4-difluorocyclohexyl)pyridin-3-yl)-3-(1H-indol-3-yl)urea] showed an EC50 of 40 to 200 nM.
